Test: cis/trans solubility ratio of 2,2,4,4-tetramethylcyclobutane-1,3-diol in a solvent
Assay type: physicochemical
Procedure: The definition of cis/trans 2,2,4,4-tetramethylcyclobutane-1,3-diol solubility ratio is also known to one of ordinary skill in the art; in one embodiment, the cis/trans 2,2,4,4-tetramethylcyclobutane-1,3-diol solubility ratio can be defined as the ratio of the cis isomer solubility limit divided by the trans isomer solubility limit at a given temperature for a given solvent or solvents. For example, the cis/trans solubility ratio in water at 80° C. is about 1.0. For MIBC, the cis/trans solubility ratio at 80° C. is about 0.74.

cis/trans solubility ratio (cis isomer solubility limit divided by trans isomer solubility limit) (in MIBC at 80° C.): about 0.74 | cis/trans solubility ratio (cis isomer solubility limit divided by trans isomer solubility limit) (in water at 80° C.): about 1.0
SMILES: CC1(C)C(O)C(C)(C)C1O (centres unmarked) [2,2,4,4-tetramethylcyclobutane-1,3-diol]
